Biological target: T1, DNA topoisomerase 1 of purified calf thymus (Bos taurus, UniProt F1MN93)
T1 construct: DNA topoisomerase 1 of purified calf thymus (Gibco-BRL, Paisley, United Kingdom); purchased Gibco-BRL, Paisley, United Kingdom; host or cells: calf thymus tissue
T1 sequence (F1MN93 1-767): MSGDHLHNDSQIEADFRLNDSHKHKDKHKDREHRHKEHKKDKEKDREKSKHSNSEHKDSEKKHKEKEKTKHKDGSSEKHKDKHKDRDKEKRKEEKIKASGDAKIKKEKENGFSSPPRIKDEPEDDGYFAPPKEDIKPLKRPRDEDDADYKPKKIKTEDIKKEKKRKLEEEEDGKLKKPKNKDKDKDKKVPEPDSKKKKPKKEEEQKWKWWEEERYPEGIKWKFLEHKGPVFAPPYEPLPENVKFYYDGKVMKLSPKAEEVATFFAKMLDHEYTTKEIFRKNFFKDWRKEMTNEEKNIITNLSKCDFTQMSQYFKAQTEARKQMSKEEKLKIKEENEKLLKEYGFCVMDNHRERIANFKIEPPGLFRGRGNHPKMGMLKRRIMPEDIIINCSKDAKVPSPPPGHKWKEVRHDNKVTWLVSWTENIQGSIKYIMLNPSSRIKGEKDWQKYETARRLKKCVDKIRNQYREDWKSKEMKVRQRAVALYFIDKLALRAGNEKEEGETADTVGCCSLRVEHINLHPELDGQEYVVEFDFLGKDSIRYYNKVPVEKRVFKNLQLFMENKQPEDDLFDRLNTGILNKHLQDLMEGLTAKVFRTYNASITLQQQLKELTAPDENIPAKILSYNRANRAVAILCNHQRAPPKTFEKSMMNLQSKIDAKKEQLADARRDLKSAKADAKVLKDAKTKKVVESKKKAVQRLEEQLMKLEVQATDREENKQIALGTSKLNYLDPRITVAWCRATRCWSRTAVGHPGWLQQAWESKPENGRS
Assay: Relaxation activity test of DNA induced by topoisomerase 1
Type: biochemical
Details: supercoiled pUC19, 15 minutes at 37° C.
Procedure: 1. Relaxation Activity Test of DNA Induced by Topoisomerase 1
All the reactions are carried out in a 20 μl reaction buffer constituted by 50 mM of Tris-HCl (pH 7.5), 50 mM of KCl, 0.5 mM of dithiothreitol, 10 mM of MgCl2, 0.1 mM of ethyldiamine tetraacetic acid (EDTA), 30 μg/ml of bovine serum albumin and 300 ng of supercoiled pUC19 (Pharmacia Biotech, Orsay, France) with or without the compounds to be tested at defined concentrations. All the compounds to be tested are initially dissolved in dimethylsulphoxide (DMSO) at 50 mM, the other dilutions being carried out with distilled water. […] The reaction is initiated by the addition of a unit of DNA topoisomerase 1 of purified calf thymus (Gibco-BRL, Paisley, United Kingdom) and is carried out for 15 minutes at 37° C. The reactions are stopped by the addition of 3 μl of a mixture containing 1% dodecyl sodium sulphate at 1%, 20 mM of EDTA and 500 μg/ml of K proteinase (Boehringer Mannheim, Meylan, France). After an additional incubation period of 30 minutes at 37° C., 2 μl of a loading buffer containing 10 mM of Na2HPO4, 0.3% of bromophenol blue et 16% Ficoll are added to samples which are subjected to electrophoresis in agarose gels at 1.2% at 1 V/cm for 20 hours in a buffer containing 36 mM of Tris-HCl at pH 7.8, 30 mM of Na2HPO4, 1 mM of EDTA and 2 μg/ml of chloroquine. The gels are stained with 2 μg/ml of ethidium bromide, photographed under UV light at 312 nm with a camera and the fluorescent intensity is measured with a bioProfil camera (Vilber Lournat, Lyon, France) with a view to determining the percentage of relaxed DNA. Each experiment is carried out at least three times in duplicate.
In each experiment, the supercoiled plasmid DNA is incubated alone or with topoisomerase 1. The reaction is completed within 15 minutes. For each compound to be tested or control, the supercoiled plasmid DNA is incubated in the presence of 500 μM of compound to be tested with enzyme or without enzyme plus the compound to be tested, at concentrations of 10 μM, 100 μM, 200 μM and 500 μM.

SMILES | PERCENTAGE OF RELAXED DNA (10 μM compound) | PERCENTAGE OF RELAXED DNA (100 μM compound) | PERCENTAGE OF RELAXED DNA (200 μM compound) | PERCENTAGE OF RELAXED DNA (500 μM compound)
CCC(O)(CC(=O)O)c1cc2n(c(=O)c1CO)Cc1cc3ccccc3nc1-2 (centres unmarked) [Example 4, 3-hydroxy-3-[8-(hydroxymethyl)-9-oxo-9,11-dihydroindolizino [1,2-b]quinolin-7-yl]pentanoic acid] | 99.1% | 82.2% | 67.6% | 32.9%
CCc1c2c(nc3ccccc13)-c1cc3c(c(=O)n1C2)COC(=O)CC3(O)CC (centres unmarked) [Example 9, 5,12-diethyl-5-hydroxy-1,4,5,13-tetrahydro-3H,15H-oxepino[3′,4′:6,7]indolizino[1,2-b]quinoline-3,15-dione] | 77.1% | 33.9% | 29.7% | 20.4%
CCC1(O)CC(=O)OCc2c1cc1n(c2=O)Cc2cc3ccccc3nc2-1 (centres unmarked) [Example 3, 5-ethyl-5-hydroxy-1,4,5,13-tetrahydro-3H,15H-oxepino [3′,4′:6,7]indolizino[1,2-b]quinoline-3,15-dione] | 79.9% | 59.9% | 55.0% | 45.7%
CCC1(O)CC(=O)OCc2c1cc1n(c2=O)Cc2cc3cc4c(cc3nc2-1)OCCO4 (centres unmarked) [Example 11, 8-ethyl-8-hydroxy-2,3,8,9,12,15-hexahydro-10H,13H-[1,4]dioxino [2,3-g]oxepino[3′,4′:6,7]indolizino[1,2-b]quinoline-10,13-dione] | 65.0% | 50.3% | 39.8% | 31.0%
CCc1c2c(nc3ccccc13)-c1cc(C(O)(CC)CC(=O)O)c(CO)c(=O)n1C2 (centres unmarked) [Example 10, 3-[12-ethyl-8-(hydroxymethyl)-9-oxo-9,11-dihydroindolizino[1,2-b]quinolin-7-yl]-3-hydroxypentanoic acid] | 96.9% | 45.4% | 26.2% | 8.7%

From patent US6815546B2, “Analogues of camptothecin, their use as medicaments and the pharmaceutical compositions containing them” (Societe de Recherches et d'Applications Scientifiques …, priority 1995, dated 2004)
